Source: patent US20220026421A1, “METHOD, SURFACE, PARTICLE AND KIT FOR THE DETECTION OF ANALYTES IN SAMPLES” (TECHNISCHE UNIVERSITÄT DRESDEN, priority 2018, published 2022)

Target: EcEPSPS (UniProt P0A6D3+Q04571)
Conditions: FIG. 2; surfaces incubated with 10 mM solution, then glyphosate-coated particles; Ccg2 / Ccg2_GS_EcEPSPS coated glass
Protocol: The immobilised enzymes on the surface interact attractively with the particle-bound competitor, resulting in a characteristic contact area between the surface and the particle. The dissolved analyte competes with the competitor for the binding sites on the surface. […] The determination of the contact and particle radius to ascertain the adhesion energy takes place by means of reflection interference contrast microscopy.
The surfaces were then incubated with either 10 mM glyphosate or glufosinate solutions and then with linker-functionalised particles with or without glyphosate coating.
The surfaces were then incubated with glyphosate solutions of different concentrations and then with glyphosate-coated particles with ethylenediamine or pentaglycine linkers. […]
The recording of the radial intensity profiles of the HGS on the functionalised surface took place in the reflection interference contrast method by means of an inverted microscope system (Olympus IX 73) with a 60× immersion objective (Olympus UPIanSAPO 60× Oil Microscope Objective). From the recorded profiles, the contact radii a of particles and surface as well as the particle radii RHES could be automatically ascertained subsequently by means of software specially developed for this purpose. According to the Johnson-Kendall-Roberts model [2], these quantities are related to the adhesion energy Wadh in the following context: […]

Structure (SMILES): O=C(O)CNCP(=O)(O)O [glyphosate, N-(phosphonomethyl)glycine]
- influence of soluble compound on the adhesion energy between glyphosate-coated particle and surface: in the range of the negative control
